The values below come from patent publication US20120164242A1, “NOVEL METHODS FOR MODULATING MELANIN PRODUCTION” (priority 2010, published 2012).

The experiment deals with melanogenesis related genes. The experiment can be described thus: RT-PCR mRNA level of melanogenesis related genes in B16-F10 cells. In kind it is cell-based, mouse. The settings on record: 100 μM, three days. As for the experimental part:
To determine whether THSG had similar effects as the PMT extract on the induction of melanin related gene expression, B16-F10 cells were cultured in medium containing PMT extract (10 μg/mL), THSG (10 μg/mL), naringenin (100 μM) for three days and RT-PCR was performed to analyze melanin biosynthesis related gene expression using the protocol as described in Example 4 above.

`O=C1C[C@@H](c2ccc(O)cc2)Oc2cc(O)cc(O)c21` [naringenin]: the “mRNA level of melanogenesis related genes” value is reported as “no increase”.
